Experimental data from ChEMBL document CHEMBL4622974, “Leveraging an Open Science Drug Discovery Model to Develop CNS-Penetrant ALK2 Inhibitors for the Treatment of Diffuse Intrinsic Pontine Glioma” (J Med Chem, 2020).
The source made the active and inactive calls. The rule behind the calls is not given here.

Legend:
[1] = Protein binding in human plasma assessed as free fraction at 5 uM after 4 hrs by rapid equilibrium dialysis; type: ADME, cell-free
[2] = Oral bioavailability in CB17 SCID mouse at 10 mg/kg after 0.25 to 24 hrs by LC/MS/MS method; type: ADME, organism-based; conditions: in vivo
[3] = target: Protein-tyrosine kinase 6 (Homo sapiens, UniProt Q13882); assay: Inhibition of BRK (unknown origin)
[4] = Clearance in SD rat at 2 mg/kg, iv after 0.25 to 24 hrs by LC/MS/MS method; type: ADME, organism-based; conditions: in vivo
[5] = Toxicity in CB17 SCID mouse assessed as induction of adverse effect at 10 mg/kg, po; type: organism-based; conditions: in vivo
[6] = Growth inhibition of human HSJD-DIPG-007 cells harboring ACVR1 R206H mutant; type: functional
[7] = Half life in CB17 SCID mouse at 10 mg/kg, po after 0.25 to 24 hrs by LC/MS/MS method; type: ADME, organism-based; conditions: in vivo
[8] = Ratio of drug level in brain to plasma in CB17 SCID mouse at 100 mg/kg, po measured at 4 h; type: ADME, organism-based; conditions: brain and plasma, read-out: BPR
[9] = AUCinfinity in CB17 SCID mouse at 10 mg/kg, po after 0.25 to 24 hrs by LC/MS/MS method; type: ADME, organism-based; design: dose 10 mg/kg, time infinity, route oral; conditions: in vivo
[10] = Stability in human liver microsomes assessed as compound remaining at 1 uM incubated for 60 mins by LC/MS analysis; type: ADME, Microsome; conditions: read-out: Stability
[11] = Growth inhibition of human SU-DIPG-XXI cells harboring ACVR1 G328W mutant; type: functional
Activin receptor type-1B = target: T1, Activin receptor type-1B (Homo sapiens, UniProt P36896); assay: Inhibition of human ALK4 using casein as substrate in presence of [gamma-33P]-ATP by radiometric hotspot assay; type: ADME
T1 sequence (P36896 whole entry): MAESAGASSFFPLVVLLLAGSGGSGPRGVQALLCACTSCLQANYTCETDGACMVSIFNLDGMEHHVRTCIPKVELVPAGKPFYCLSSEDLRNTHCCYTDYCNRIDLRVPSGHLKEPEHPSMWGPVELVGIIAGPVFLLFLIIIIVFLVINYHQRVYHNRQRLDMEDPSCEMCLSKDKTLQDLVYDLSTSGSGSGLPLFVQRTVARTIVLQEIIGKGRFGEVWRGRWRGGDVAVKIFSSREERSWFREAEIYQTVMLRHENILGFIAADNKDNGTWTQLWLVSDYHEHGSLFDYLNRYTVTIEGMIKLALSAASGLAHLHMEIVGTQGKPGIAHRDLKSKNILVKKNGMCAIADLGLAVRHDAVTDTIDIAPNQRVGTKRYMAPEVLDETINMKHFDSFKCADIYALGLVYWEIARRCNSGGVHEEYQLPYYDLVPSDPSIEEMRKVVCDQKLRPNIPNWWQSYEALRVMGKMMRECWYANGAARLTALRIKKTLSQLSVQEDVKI

[12] = target: Epithelial discoidin domain-containing receptor 1 (Homo sapiens, UniProt Q08345); assay: Inhibition of DDR1 (unknown origin)
Sequence of Epithelial discoidin domain-containing receptor 1 (Q08345 whole entry, the tested form may be a part): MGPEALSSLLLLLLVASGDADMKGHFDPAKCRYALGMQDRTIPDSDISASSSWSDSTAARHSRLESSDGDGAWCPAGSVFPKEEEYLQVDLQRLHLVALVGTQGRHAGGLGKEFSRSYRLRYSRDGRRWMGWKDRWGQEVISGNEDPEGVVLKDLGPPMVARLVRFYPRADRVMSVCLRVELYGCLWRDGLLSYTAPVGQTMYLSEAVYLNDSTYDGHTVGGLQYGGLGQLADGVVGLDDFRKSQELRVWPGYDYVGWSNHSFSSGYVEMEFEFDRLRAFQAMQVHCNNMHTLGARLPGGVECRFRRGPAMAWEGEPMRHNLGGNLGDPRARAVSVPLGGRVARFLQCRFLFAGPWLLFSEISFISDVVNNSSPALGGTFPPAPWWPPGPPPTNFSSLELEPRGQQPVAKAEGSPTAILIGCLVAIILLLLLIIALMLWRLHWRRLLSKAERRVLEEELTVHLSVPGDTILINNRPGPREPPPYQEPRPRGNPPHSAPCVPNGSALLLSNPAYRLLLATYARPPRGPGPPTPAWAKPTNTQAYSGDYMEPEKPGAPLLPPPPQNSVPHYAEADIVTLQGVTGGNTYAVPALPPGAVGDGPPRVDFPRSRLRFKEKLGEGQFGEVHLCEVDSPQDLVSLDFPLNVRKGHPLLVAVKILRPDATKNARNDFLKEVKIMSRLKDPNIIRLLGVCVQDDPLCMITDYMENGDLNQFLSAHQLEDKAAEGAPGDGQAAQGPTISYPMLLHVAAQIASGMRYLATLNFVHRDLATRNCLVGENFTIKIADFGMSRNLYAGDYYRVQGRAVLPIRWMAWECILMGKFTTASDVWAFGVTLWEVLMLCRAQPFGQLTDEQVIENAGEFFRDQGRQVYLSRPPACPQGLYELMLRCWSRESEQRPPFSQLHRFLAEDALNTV

[13] = Toxicity in CB17 SCID mouse assessed as induction of adverse effect at 2 mg/kg, iv; type: organism-based; conditions: in vivo
[14] = Half life in SD rat at 10 mg/kg, po after 0.25 to 24 hrs by LC/MS/MS method; type: ADME, organism-based; conditions: in vivo
[15] = Protein binding in human plasma at 5 uM after 4 hrs by rapid equilibrium dialysis; type: ADME, cell-free; conditions: read-out: PPB (converted)
[16] = Clearance in CB17 SCID mouse at 2 mg/kg, iv after 0.25 to 24 hrs by LC/MS/MS method; type: ADME, organism-based; conditions: in vivo
[17] = Half life in CD1 mouse liver microsomes at 1 uM incubated for 60 mins by LC/MS analysis; type: ADME, Microsome
[18] = Toxicity in CB17 SCID mouse assessed as behavioural abnormalities at 100 mg/kg, po measured after 24 hrs; type: organism-based; conditions: in vivo
[19] = Oral bioavailability in SD rat at 10 mg/kg after 0.25 to 24 hrs by LC/MS/MS method; type: ADME, organism-based; conditions: in vivo
[20] = Toxicity in CB17 SCID mouse assessed as physical abnormalities at 100 mg/kg, po measured after 24 hrs; type: organism-based; conditions: in vivo
[21] = Cmax in SD rat at 10 mg/kg, po after 0.25 to 24 hrs by LC/MS/MS method; type: ADME, organism-based; design: dose 10 mg/kg, route oral; conditions: in vivo
[22] = target: Tyrosine-protein kinase ABL1 (Homo sapiens, UniProt P00519); assay: Inhibition of ABL1 (unknown origin)
Sequence of Tyrosine-protein kinase ABL1 (P00519 whole entry): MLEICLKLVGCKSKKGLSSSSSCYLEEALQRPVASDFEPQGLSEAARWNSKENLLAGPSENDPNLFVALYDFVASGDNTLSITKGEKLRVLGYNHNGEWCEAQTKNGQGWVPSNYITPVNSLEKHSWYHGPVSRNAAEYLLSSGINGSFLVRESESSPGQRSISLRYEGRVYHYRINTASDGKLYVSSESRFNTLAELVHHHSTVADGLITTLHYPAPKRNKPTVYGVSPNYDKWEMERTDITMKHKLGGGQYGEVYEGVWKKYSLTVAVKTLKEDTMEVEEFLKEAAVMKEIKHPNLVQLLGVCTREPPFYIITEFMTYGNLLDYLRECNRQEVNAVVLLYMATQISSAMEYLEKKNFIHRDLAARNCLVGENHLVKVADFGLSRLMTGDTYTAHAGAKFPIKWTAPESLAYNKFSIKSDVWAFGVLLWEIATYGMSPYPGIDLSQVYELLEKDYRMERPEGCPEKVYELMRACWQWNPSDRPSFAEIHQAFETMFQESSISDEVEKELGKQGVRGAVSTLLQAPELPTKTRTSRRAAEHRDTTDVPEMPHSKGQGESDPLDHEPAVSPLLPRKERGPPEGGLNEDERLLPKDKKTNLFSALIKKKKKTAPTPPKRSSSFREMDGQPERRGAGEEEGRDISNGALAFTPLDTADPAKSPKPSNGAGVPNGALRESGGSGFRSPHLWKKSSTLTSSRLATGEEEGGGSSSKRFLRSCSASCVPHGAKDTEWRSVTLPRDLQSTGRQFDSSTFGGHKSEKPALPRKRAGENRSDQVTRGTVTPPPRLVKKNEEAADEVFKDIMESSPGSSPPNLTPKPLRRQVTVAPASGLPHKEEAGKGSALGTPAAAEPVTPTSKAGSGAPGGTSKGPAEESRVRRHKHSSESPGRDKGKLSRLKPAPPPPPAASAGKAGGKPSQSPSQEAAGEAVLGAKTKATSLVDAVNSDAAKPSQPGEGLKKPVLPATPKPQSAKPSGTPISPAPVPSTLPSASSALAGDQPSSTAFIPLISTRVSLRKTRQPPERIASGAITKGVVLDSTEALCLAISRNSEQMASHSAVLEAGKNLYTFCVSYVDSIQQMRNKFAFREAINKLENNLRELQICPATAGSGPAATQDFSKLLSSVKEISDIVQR

[23] = target: Mitogen-activated protein kinase kinase kinase 20 (Homo sapiens, UniProt Q9NYL2); assay: Inhibition of ZAK (unknown origin)
[24] = Volume of distribution at steady state in SD rat at 2 mg/kg, iv after 0.25 to 24 hrs by LC/MS/MS method; type: ADME, organism-based; conditions: in vivo, read-out: Vdss
[25] = Volume of distribution at steady state in CB17 SCID mouse at 2 mg/kg, iv after 0.25 to 24 hrs by LC/MS/MS method; type: ADME, organism-based; conditions: in vivo, read-out: Vdss
[26] = Stability in CD1 mouse liver microsomes assessed as compound remaining at 1 uM incubated for 60 mins by LC/MS analysis; type: ADME, Microsome; conditions: read-out: Stability
[27] = target: TRAF2 and NCK-interacting protein kinase (Homo sapiens, UniProt Q9UKE5); assay: Inhibition of TNIK (unknown origin)
Misshapen-like kinase 1 = Misshapen-like kinase 1 (Homo sapiens, UniProt Q8N4C8); assay: Inhibition of MINK (unknown origin)
[28] = AUCinfinity in SD rat at 10 mg/kg, po after 0.25 to 24 hrs by LC/MS/MS method; type: ADME, organism-based; design: dose 10 mg/kg, route oral, time infinity; conditions: in vivo
[29] = Half life in human liver microsomes at 1 uM incubated for 60 mins by LC/MS analysis; type: ADME, Microsome
[30] = Cmax in CB17 SCID mouse at 10 mg/kg, po after 0.25 to 24 hrs by LC/MS/MS method; type: ADME, organism-based; design: dose 10 mg/kg, route oral; conditions: in vivo
[31] = Drug concentration in CB17 SCID mouse brain at 100 mg/kg after 0.25 to 24 hrs; type: ADME, organism-based; conditions: in vivo, read-out: Drug uptake
[32] = target: Serine/threonine-protein kinase NLK (Homo sapiens, UniProt Q9UBE8); assay: Inhibition of NLK (unknown origin)
Sequence of Serine/threonine-protein kinase NLK (Q9UBE8 whole entry): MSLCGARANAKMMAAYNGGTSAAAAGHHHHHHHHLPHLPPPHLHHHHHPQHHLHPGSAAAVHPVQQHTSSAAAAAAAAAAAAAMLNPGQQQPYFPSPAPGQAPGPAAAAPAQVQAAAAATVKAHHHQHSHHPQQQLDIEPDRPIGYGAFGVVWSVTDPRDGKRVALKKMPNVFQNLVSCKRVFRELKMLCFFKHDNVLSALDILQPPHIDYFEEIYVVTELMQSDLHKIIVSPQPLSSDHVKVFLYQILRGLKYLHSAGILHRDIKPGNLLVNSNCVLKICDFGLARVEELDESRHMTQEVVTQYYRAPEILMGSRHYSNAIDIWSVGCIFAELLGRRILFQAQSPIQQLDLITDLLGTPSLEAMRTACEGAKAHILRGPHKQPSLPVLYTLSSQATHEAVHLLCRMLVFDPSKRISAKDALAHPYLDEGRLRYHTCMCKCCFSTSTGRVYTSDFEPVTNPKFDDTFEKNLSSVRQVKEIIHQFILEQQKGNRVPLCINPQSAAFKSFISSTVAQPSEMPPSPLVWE

[33] = Protein binding in CD-1 mouse plasma at 1 mg/kg, iv measured at 2 hrs by LC/MS/MS method; type: ADME, organism-based; conditions: read-out: PPB
[34] = Toxicity in C57BL/6 mouse assessed as body weight loss at 100 mg/kg, po QD administered for 5 days measured after 24 hrs relative to control; type: organism-based; conditions: in vivo
sodium channel site 2 = assay: Inhibition of rat sodium channel site2 at 10 uM incubated for 60 mins by scintillation counting method
Cytochrome P450 2C9 = Cytochrome P450 2C9 (Homo sapiens, UniProt P11712); assay: Inhibition of CYP2C9 in human liver microsomes using tolbutamide as substrate incubated for 20 mins in presence of NADPH by LC/MS/MS analysis; type: ADME
Sequence of Cytochrome P450 2C9 (P11712 whole entry): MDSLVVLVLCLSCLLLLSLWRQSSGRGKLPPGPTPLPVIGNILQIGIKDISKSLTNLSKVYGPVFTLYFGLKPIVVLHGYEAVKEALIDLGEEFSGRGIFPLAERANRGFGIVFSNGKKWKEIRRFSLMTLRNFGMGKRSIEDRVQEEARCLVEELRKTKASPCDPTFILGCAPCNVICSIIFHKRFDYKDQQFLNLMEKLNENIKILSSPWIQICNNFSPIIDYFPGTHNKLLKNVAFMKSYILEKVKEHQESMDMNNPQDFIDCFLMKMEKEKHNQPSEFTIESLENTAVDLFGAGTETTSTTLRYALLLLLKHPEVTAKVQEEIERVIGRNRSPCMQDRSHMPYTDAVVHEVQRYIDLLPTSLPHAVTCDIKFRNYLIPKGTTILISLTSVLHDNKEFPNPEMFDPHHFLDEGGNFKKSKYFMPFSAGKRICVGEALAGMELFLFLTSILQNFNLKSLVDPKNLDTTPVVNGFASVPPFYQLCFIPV

[35] = Toxicity in C57BL/6 mouse assessed as body weight loss at 25 mg/kg, po QD administered for 5 days measured after 24 hrs relative to control; type: organism-based; conditions: in vivo

Row | SMILES | fraction unbound at 4 h, 5 µM [1] | bioavailability [2] | clearance [4] | Activity [5] | GI50 [6] | half-life [7] | Kp at 4 h [8] | AUC(0-inf) [9] | remaining at 1 h, 1 µM [10] | GI50 [11] | IC50 (Activin receptor type-1B) | Activity [13] | half-life [14] | fraction unbound at 4 h, 5 µM [15] | clearance [16] | half-life at 1 µM [17] | Activity [18] | bioavailability [19] | Activity [20] | Cmax [21] | further results
1 | COc1cc(-c2cncc(-c3ccc(C4CCN(C)CC4)cc3)c2C)cc(OC)c1OC | 0.05 | 74% | 15.1 mL/min/kg | Non-Toxic | 36 nM | 220 min | 1.55 | 32.4 µM·h | 71.2% | 214 nM | > 2000 nM | Non-Toxic | 234 min | 0.05 | 8.9 mL/min/kg | > 60 min | Non-Toxic | 50% | Non-Toxic | 1160 nM | inhibition [3]: Active; inhibition [12]: Active; inhibition [22]: Active; inhibition [23]: Active; Vd [24]: 4.33 L/kg; Vd [25]: 2.44 L/kg; remaining at 1 h, 1 µM [26]: 55.5%; inhibition [27]: Active; inhibition (Misshapen-like kinase 1): Active; AUC(0-inf) [28]: 12.9 µM·h; half-life at 1 µM [29]: > 60 min; Cmax [30]: 4.74 µM; concentration [31]: 39 µM
2 | COc1cc(-c2cncc(-c3ccc(N4CCNCC4)cc3)c2C)cc(OC)c1OC | 0.057 | 100% | 22.1 mL/min/kg | Non-Toxic | 130 nM | 187 min | 1.1 | 51.7 µM·h | 71.4% | 52 nM | 1340 nM | Non-Toxic | 215 min | 0.057 | 12.7 mL/min/kg | > 60 min | Non-Toxic | 96% | Non-Toxic | 1280 nM | IC50 [32]: 336 to 924 nM; IC50 [3]: 336 to 924 nM; fraction unbound at 2 h [33]: 0.09; IC50 [12]: 41 nM; IC50 [22]: 336 to 924 nM; Activity [34]: Non-Toxic; IC50 [23]: 336 to 924 nM; Vd [24]: 5.22 L/kg; Vd [25]: 2.05 L/kg; remaining at 1 h, 1 µM [26]: 64.6%; inhibition at 1 h, 10 µM (sodium channel site 2): 72%; IC50 (Cytochrome P450 2C9): > 30 µM; IC50 [27]: 96 nM; IC50 (Misshapen-like kinase 1): 336 to 924 nM; AUC(0-inf) [28]: 17.4 µM·h; half-life at 1 µM [29]: > 60 min; Cmax [30]: 6.16 µM; Activity [35]: Non-Toxic
